Test results: US20230346272A1 (priority 2021, published 2023)

Assay: Differential Pulse Voltammetry (DPV) with microneedle sensor array, oxycodone and metabolites (FIG. 10)
Type: physicochemical
Conditions: applied voltages from 0 to 1.2V

Structure (SMILES)	current peak (DPV)	voltage of the current peak (DPV)
COc1ccc2c3c1O[C@H]1C(=O)CC[C@@]4(O)[C@@H](C2)NCC[C@]314 [noroxycodone]	about 165 μA	about 0.95 V
COc1ccc2c3c1O[C@H]1C(=O)CC[C@@]4(O)[C@@H](C2)N(C)CC[C@]314 [oxycodone]	about 100 μA	about 0.75 V
CN1CC[C@]23c4c5ccc(O)c4O[C@H]2C(=O)CC[C@@]3(O)[C@H]1C5 [oxymorphone]	about 30 μA	about 0.45 V
